Measurements from patent publication US9872495B2, “Peptoid oligomers, pharmaceutical compositions and methods of using the same” (priority 2009, dated 2018).
Values after ≈ are worked out from the molar mass of the structure shown.

How the values were obtained:
[1] = tested on: fresh human erythrocytes; experiment: Hemolytic activity; assay type: cell-based; conditions: red cells of human
Procedure: Typically, toxicity is evaluated by hemolytic concentration50 (HC50), which measures the concentration of antimicrobial agents at which 50% of the erythrocytes in the culture are lysed. Significant hemolysis, as evaluated by HC50, was detectable only for peptide gramicidin S (40 μg/mL). […] In order to test hemolytic activity of peptoid oligomers further, more stringent parameters were used. Instead of HC50, hemolytic concentration10 (HC10) was used to evaluate hemolytic activity of peptoids used in this study. HC10 represents the concentration of antimicrobial agents where 10% of erythrocytes are lysed. HC10 values were detectable for only four peptoid oligomers. […] Antimicrobial activity was tested against the gram-negative strain Escherichia coli ATCC 25922, and […] strains Staphylococcus aureus ATCC 25923, and Bacillus subtilis ATCC 6633, according to the guidelines given in the document […]-A7 of the CLSI (Clinical and Laboratory Standards Institute; Clinical and Laboratory Standards Institute. Methods for Dilution Antimicrobial Susceptibility Tests for Bacteria That Grow Aerobically-Seventh Edition: Approved Standard CLSI document […]-A7. CLSI, Wayne, USA, 2006). This reference is incorporated herein in its entirety. Hemolytic activity was tested against fresh human erythrocytes.

[2] = tested on: MSSA (methicillin-sensitive) and MRSA (methicillin-resistant) S. aureus strains; assay type: cell-based, Staphylococcus aureus
Procedure: Experimental Design: • Twelve strains of MSSA (methicillin-sensitive) and MRSA (methicillin-resistant) S. aureus were cross-tested against two antibacterial peptoid oligomers.
[drawing 50] • Testing was accomplished with 96-well plates wherein each well contained LB media, the S. aureus strain, and a solution of the compound in ethanol at a specific concentration. • A twofold serial dilution of each compound was accomplished with pure ethanol starting from 0.5 mg/mL to 0.0039 mg/mL. • To determine the appropriate concentration of the bacterial strain for each well, the previously grown (overnight in LB media) cultures were diluted with LB media until the optical density at 595 nm (OD595˜OD600) was ˜0.005. • Each experiment was conducted in triplicate, e.g. testing of “Newman” S. aureus strain against a specific concentration of C(NapNdp)3 was replicated in three wells. • Control experiments were also conducted in absence of the compound, i.e. the plates contained only the bacterial strain, LB media, and ethanol. • The plates were incubated and gently shaken overnight (20 hours) at 37° C., and OD595 was read before (t=0) and after (t=20) incubation.
Specifically, along a dilution sequence, the well with the least OD595 after subtraction was determined to be the MIC.

[3] = tested on: Escherichia coli ATCC 25922; assay type: cell-based; conditions: ATCC 25922
Procedure: (§1) Antimicrobial activity was tested against the gram-negative strain Escherichia coli ATCC 25922, and […] strains Staphylococcus aureus ATCC 25923, and Bacillus subtilis ATCC 6633, according to the guidelines given in the document […]-A7 of the CLSI (Clinical and Laboratory Standards Institute; Clinical and Laboratory Standards Institute. Methods for Dilution Antimicrobial Susceptibility Tests for Bacteria That Grow Aerobically-Seventh Edition: Approved Standard CLSI document […]-A7. CLSI, Wayne, USA, 2006). This reference is incorporated herein in its entirety. Hemolytic activity was tested against fresh human erythrocytes.

[4] = tested on: Staphylococcus aureus ATCC 25923; assay type: cell-based; conditions: ATCC 25923
Procedure: as §1

[5] = tested on: Bacillus subtilis ATCC 6633; assay type: cell-based; conditions: ATCC 6633
Procedure: as §1

MIC against Staphylococcus aureus strain ([2]; methicillin-sensitive) and (methicillin-resistant) strains): 15.6 µg/mL (≈ 14 µM)
MIC E. coli [3]: 15.6 µg/mL (≈ 14 µM)
MIC S. aureus [4]: 15.6 µg/mL (≈ 14 µM)
MIC B. sub [5]: 1 µg/mL (≈ 0.898 µM)
Structure (SMILES): CC(=O)N(CCCN)CC(=O)N(CC(=O)N(CCCN)CC(=O)N(CC(=O)N(CCCN)CC(=O)N(CC(N)=O)CC(c1ccccc1)c1ccccc1)CC(c1ccccc1)c1ccccc1)CC(c1ccccc1)c1ccccc1 [Compound 4, Ac(NapNdp)3]
HC10 (concentration where 10% hemolysis is observed) [1]: >62.5 µg/mL
HC50 (concentration where 50% hemolysis is observed) [1]: >250 µg/mL
activity across strains of Staphylococcus aureus (in words) ([2]; clinical, community-acquired, and hospital strains, methicillin-sensitive and methicillin-resistant): active
